Earlier results on five compounds are cited in article PMC12440824, “Chimeric deubiquitinase engineering reveals structural basis for specific inhibition of the mitophagy regulator USP30” (Nature Structural & Molecular Biology, 2025).

Like-named read-outs stand apart in the source and are kept apart here. Some results are limits rather than exact numbers.

Data set [1] concerns USP30. Particulars: literature values in Fig. 1b / Extended Data Fig. 1; ref Extended Data Fig. 1; read-out: Cellular ABPP IC50; cited from earlier work.
In the next data set the test system is recombinant USP30. Particulars: literature values in Extended Data Fig. 1; ref Extended Data Fig. 1; read-out: Ub-Rho IC50; cited from earlier work.
Data set [2] deals with USP30. More on the design: method as in Extended Data Fig. 1. The settings on record: ref Extended Data Fig. 1; read-out: Tetra-Ub cleavage IC50; cited from earlier work.

For the compound `N#CN1CC[C@@H](NC(=O)c2cc(-c3ccccc3Oc3ccccc3)n[nH]2)C1` [FT385], the IC50 was about 60 nM in the data set with USP30 [1] and 2 nM in the data set with recombinant USP30.
Consider `CC(C)(C)NS(=O)(=O)c1cccc2c(NC(=O)[C@H](Cc3ccccc3)NC(=O)C3CCCCC3)cccc12` [MF-094], for which the IC50 with USP30 [1] was under 200 nM; with recombinant USP30 it was 120 nM.
Consider `COc1cc(NC(=O)[C@H](Cc2ccccc2)NC(=O)c2ccc(F)cc2)ccc1S(=O)(=O)NC1CCOCC1` [I-150], for which the half-inhibitory concentration (IC50) in the data set on recombinant USP30 was under 50 nM.
For `N#Cc1cccc(-c2nnc(C(=O)NC3CC(CF)N(C#N)C3)o2)c1` (stereo not shown) [Example 3], the IC50 in the data set on recombinant USP30 was 13 nM.
Take `C=C1C(=O)C23CCC1CC2C12CCCC(C)(COC1=O)C2CC3O` (stereo not shown) [S3]: in the data set on USP30 [2], the half-inhibitory concentration (IC50) was 10000 to 50000 nM.

As a reminder, the IC50 is the concentration needed to halve the response being measured.
